Some results are limits rather than exact numbers.

Assay type in all cases: cell-based
One test deals with T1, TPM3-TRKA fusion protein (Homo sapiens, UniProt P04629).
T1 construct: TPM3 (N-terminal part of tropomyosin alpha-3, natural fusion partner); endogenous in cells; host or cells: KM12 colon cancer cells; the other entry of the earlier key: TPM3 (P06753, Tropomyosin alpha-3 chain)
Nature of the test: TPM3-TRKA degradation in KM12 cells (Western blot). To be noted: 16 hours, TRK protein, immunoblot; for inhibition at 0.1 µM: 100 nM; for inhibition at 0.01 µM: 10 nM. As for the experimental part: Specific exemplary heterobifunctional compounds were characterized in KM12 cells. KM12 cells that express TPM3-TRKA fusion protein were treated with 10 nM or 100 nM heterobifunctional compounds disclosed herein or their corresponding warheads/inhibitors for 16 hours. Cells were collected, lysed and subject to immunoblotting using an antibody specific to TRK proteins.
KM12 cells were treated with heterobifunctional compounds at 10 nM or 100 nM for 16 hours.
Cultured cells were washed with cold PBS once and lysed in cold RIPA buffer supplemented with protease inhibitors and phosphatase inhibitors (Beyotime Biotechnology). The solutions were then incubated at 4° C. for 30 minutes with gentle agitation to fully lyse cells. Cell lysates were centrifuged at 13,000 rpm for 10 minutes at 4° C. and pellets were discarded. Total protein concentrations in the lysates were determined by BCA assays (Beyotime Biotechnology). Cell lysates were mixed with Laemmli loading buffer to 1× and heated at 99° C. for 5 min. Proteins were resolved on SDS-PAGE and visualized by chemiluminescence. Images were taken by a ChemiDoc MP Imaging system (Bio-Rad). Protein bands were quantitated using the software provided by Bio-Rad.
The percentage of TRK protein degradation of each compound at 10 nM and 100 nM was determined in KM12 cells as described in Methods. The percentage of degradation of each compound was indicated in the following categories: N/A: data not available; −: no degradation; +: degradation less than 50%; ++: degradation equal or greater than 50% but less than […]; +++: degradation equal or greater than 80%.

The next test has as its system KM12 cells. The test can be described thus: KM12 cell viability assay (CellTiter-Glo). Conditions: for IC50: Homo sapiens, 72 h, KM12 cells, 3 days, CellTiter-Glo. As for the experimental part: The kinase activity of TRK is known to play important roles in tumors expressing TRK-fusion proteins, as TRK kinase inhibitors compromise cell proliferation, survival, and induce marked clinical responses (Amatu et al., 2016; Drilon et al., 2018; Drilon et al., 2017; Khotskaya et al., 2017). KM12 cells seeded in 96-well plates were treated with heterobifunctional compounds following a 11-point 3-fold serial dilution. Three days after treatment, cell viability was determined using the CellTiter-Glo kit, and normalized to the mean values of 3 replicates of untreated cells. Dose-dependent response was analyzed following the least-squares non-linear regression method using the GraphPad Prism software. Each data point in the figure represents the mean values of three technical replicates ±standard deviation.
KM12 cells seeded in 96-well plates were treated with heterobifunctional compounds following a 11-point 3-fold serial dilution for 3 days.
(§1) KM12, TRKA G595R mutated KM12, HEL, and other cells were cultured at 37° C. with 5% CO2 in DMEM or RPMI 1640 Medium supplemented with 10% fetal bovine serum. Cells were authenticated using the short tandem repeat (STR) assays. Mycoplasma test results were negative.
(§2) Cells were seeded at a density of 5000 cells per well in 96-well assay plates and treated with test compounds following a 11-point 3-fold serial dilution. Three days later, cell viability was determined using the CellTiter-Glo assay kit (Promega) according to the manufacturer's instructions. The dose-response curves were determined and IC50 values were calculated using the GraphPad Prism software following a nonlinear regression (least squares fit) method.

The test system of test [1] is TRKA G595R mutated KM12 cells. Nature of the test: Cell viability assay in TRKA G595R mutated KM12 cells (CellTiter-Glo). Conditions: Homo sapiens, 72 h, 3 days. The method, then:
as §1, §2
The activities of selected compounds on cell viability (IC50 values) and TMP3-TRKA degradation (percentage degradation at 10 nM) in KM12 cells or KM12-G595R mutated KM12 cells (KM12-G595R) are listed in Table 2.

T1 sequence (P04629 with tags, fused parts or gaps): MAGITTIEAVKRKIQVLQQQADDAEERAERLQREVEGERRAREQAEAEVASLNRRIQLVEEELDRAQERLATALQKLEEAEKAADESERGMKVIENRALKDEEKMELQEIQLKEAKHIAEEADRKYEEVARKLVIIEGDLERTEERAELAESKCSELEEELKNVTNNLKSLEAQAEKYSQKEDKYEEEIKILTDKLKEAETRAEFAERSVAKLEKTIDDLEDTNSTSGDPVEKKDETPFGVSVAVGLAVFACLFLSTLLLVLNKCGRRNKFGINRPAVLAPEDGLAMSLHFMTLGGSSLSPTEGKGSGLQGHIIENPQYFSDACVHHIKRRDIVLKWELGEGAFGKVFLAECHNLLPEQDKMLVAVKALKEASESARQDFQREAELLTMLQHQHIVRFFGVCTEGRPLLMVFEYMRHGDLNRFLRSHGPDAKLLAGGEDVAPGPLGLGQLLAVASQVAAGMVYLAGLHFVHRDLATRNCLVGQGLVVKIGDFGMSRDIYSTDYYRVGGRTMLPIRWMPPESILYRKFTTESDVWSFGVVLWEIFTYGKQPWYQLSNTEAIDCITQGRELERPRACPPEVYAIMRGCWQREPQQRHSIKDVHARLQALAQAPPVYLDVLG

With `COCCN1C[C@@H](NC(=O)Nc2c(C)c(-c3cnc(N4CCN(C(=O)CCOCCOCCOCCOCCNC(=O)C[C@H](NC(=O)[C@@H]5C[C@@H](O)CN5C(=O)[C@@H](NC(=O)C5(F)CC5)C(C)(C)C)c5ccc(-c6scnc6C)cc5)CC4)nc3)nn2-c2ccccc2)[C@H](c2cccc(F)c2)C1` [CPD-018, (2S,4R)-1-((S)-2-(1-fluorocyclopropane-1-carboxamido)-3,3-dimethylbutanoyl)-N-((S)-19-(4-(5-(5-(3-((3S,4R)-4-(3-fluorophenyl)-1-(2-methoxyethyl)pyrrolidin-3-yl)ureido)-4-methyl-1-phenyl-1H-pyrazol-3-yl)pyrimidin-2-yl)piperazin-1-yl)-1-(4-(4-methylthiazol-5-yl)phenyl)-3,19-dioxo-7,10,13,16-tetraoxa-4-azanonadecyl)-4-hydroxypyrrolidine-2-carboxamide], the inhibition at 0.1 µM against TPM3-TRKA fusion protein lay in the range of 50 to 800%. Besides, in the test on KM12 cells, the IC50 amounted to 852 nM.
For `COCCN1C[C@@H](NC(=O)Nc2c(C)c(-c3cnc(N4CCN(C(=O)CNc5ccc6c(c5)C(=O)N(C5CCC(=O)NC5=O)C6=O)CC4)nc3)nn2-c2ccccc2)[C@H](c2cccc(F)c2)C1` (stereo partly drawn) [CPD-019, 1-(3-(2-(4-((2-(2,6-dioxopiperidin-3-yl)-1,3-dioxoisoindolin-5-yl)glycyl)piperazin-1-yl)pyrimidin-5-yl)-4-methyl-1-phenyl-1H-pyrazol-5-yl)-3-((3S,4R)-4-(3-fluorophenyl)-1-(2-methoxyethyl)pyrrolidin-3-yl)urea], at TPM3-TRKA fusion protein, the inhibition at 0.01 µM is greater than 80% and the inhibition at 0.1 µM was greater than 80%. Further, the “viability of KM12 cells” value in the test with KM12 cells (11-point 3-fold serial dilution, 3 days (FIG. 3)) is reported as “inhibited the viability”. For the same compound, 9.2 nM corresponded to half-maximal inhibition in the test on KM12 cells (IC50).
In the case of `COCCN1C[C@@H](NC(=O)Nc2c(C)c(-c3cnc(N4CCN(C(=O)CCCCCOc5cc(-c6scnc6C)ccc5CNC(=O)[C@@H]5C[C@@H](O)CN5C(=O)[C@@H](NC(=O)C5(F)CC5)C(C)(C)C)CC4)nc3)nn2-c2ccccc2)[C@H](c2cccc(F)c2)C1` [CPD-020, (2S,4R)-1-((S)-2-(1-fluorocyclopropane-1-carboxamido)-3,3-dimethylbutanoyl)-N-(2-((6-(4-(5-(5-(3-((3S,4R)-4-(3-fluorophenyl)-1-(2-methoxyethyl)pyrrolidin-3-yl)ureido)-4-methyl-1-phenyl-1H-pyrazol-3-yl)pyrimidin-2-yl)piperazin-1-yl)-6-oxohexyl)oxy)-4-(4-methylthiazol-5-yl)benzyl)-4-hydroxypyrrolidine-2-carboxamide], at TPM3-TRKA fusion protein, the inhibition at 0.1 µM is 50 to 800%. Besides, the IC50 in the test on KM12 cells was 293 nM.
Take `COCCN1C[C@@H](NC(=O)Nc2c(C)c(-c3cnc(N4CCN(C(=O)COc5ccc6c(c5)C(=O)N(C5CCC(=O)NC5=O)C6=O)CC4)nc3)nn2-c2ccccc2)[C@H](c2cccc(F)c2)C1` (stereo partly drawn) [CPD-023, 1-(3-(2-(4-(2-((2-(2,6-dioxopiperidin-3-yl)-1,3-dioxoisoindolin-5-yl)oxy)acetyl)piperazin-1-yl)pyrimidin-5-yl)-4-methyl-1-phenyl-1H-pyrazol-5-yl)-3-((3S,4R)-4-(3-fluorophenyl)-1-(2-methoxyethyl)pyrrolidin-3-yl)urea]: the IC50 in test [1] is 44 nM; in the test with KM12 cells, 6.46 nM. Moreover, the inhibition at 0.01 µM on TPM3-TRKA fusion protein is greater than 80%. Further, the inhibition at 0.1 µM at TPM3-TRKA fusion protein is greater than 80%.
Consider `COCCN1C[C@@H](NC(=O)Nc2c(C)c(-c3cnc(N4CCN(C(=O)COc5cccc6c5C(=O)N(C5CCC(=O)NC5=O)C6=O)CC4)nc3)nn2-c2ccccc2)[C@H](c2cccc(F)c2)C1` (stereo partly drawn) [CPD-024, 1-(3-(2-(4-(2-((2-(2,6-dioxopiperidin-3-yl)-1,3-dioxoisoindolin-4-yl)oxy)acetyl)piperazin-1-yl)pyrimidin-5-yl)-4-methyl-1-phenyl-1H-pyrazol-5-yl)-3-((3S,4R)-4-(3-fluorophenyl)-1-(2-methoxyethyl)pyrrolidin-3-yl)urea], for which the values for the IC50 (in test [1]; in the test on KM12 cells) were 314 nM and 86.9 nM, respectively. For the same compound, on TPM3-TRKA fusion protein, the inhibition at 0.01 µM was less than 50%. Also, on TPM3-TRKA fusion protein, the inhibition at 0.1 µM lay within 50 to 800%.
For `COCCN1C[C@@H](NC(=O)Nc2c(C)c(-c3cnc(N4CCN(C(=O)CCc5cccc6c5C(=O)N(C5CCC(=O)NC5=O)C6=O)CC4)nc3)nn2-c2ccccc2)[C@H](c2cccc(F)c2)C1` (stereo partly drawn) [CPD-025, 1-(3-(2-(4-(3-(2-(2,6-dioxopiperidin-3-yl)-1,3-dioxoisoindolin-4-yl)propanoyl)piperazin-1-yl)pyrimidin-5-yl)-4-methyl-1-phenyl-1H-pyrazol-5-yl)-3-((3S,4R)-4-(3-fluorophenyl)-1-(2-methoxyethyl)pyrrolidin-3-yl)urea], in that order: 158 nM, 30 nM, less than 50% and 50 to 800%.
Take `COCCN1C[C@@H](NC(=O)Nc2c(C)c(-c3cnc(N4CCN(C(=O)CCc5ccc6c(c5)C(=O)N(C5CCC(=O)NC5=O)C6=O)CC4)nc3)nn2-c2ccccc2)[C@H](c2cccc(F)c2)C1` (stereo partly drawn) [CPD-026, 1-(3-(2-(4-(3-(2-(2,6-dioxopiperidin-3-yl)-1,3-dioxoisoindolin-5-yl)propanoyl)piperazin-1-yl)pyrimidin-5-yl)-4-methyl-1-phenyl-1H-pyrazol-5-yl)-3-((3S,4R)-4-(3-fluorophenyl)-1-(2-methoxyethyl)pyrrolidin-3-yl)urea]: the figures for the IC50 (in test [1]; in the test with KM12 cells) were 301 nM and 42.1 nM, respectively. The inhibition at 0.01 µM on TPM3-TRKA fusion protein was greater than 80%. Moreover, the inhibition at 0.1 µM against TPM3-TRKA fusion protein was greater than 80%.
As for `COCCN1C[C@@H](NC(=O)Nc2c(C)c(-c3cnc(N4CCN(CCOc5cccc6c5C(=O)N(C5CCC(=O)NC5=O)C6=O)CC4)nc3)nn2-c2ccccc2)[C@H](c2cccc(F)c2)C1` (stereo partly drawn) [CPD-027, 1-(3-(2-(4-(2-((2-(2,6-dioxopiperidin-3-yl)-1,3-dioxoisoindolin-4-yl)oxy)ethyl)piperazin-1-yl)pyrimidin-5-yl)-4-methyl-1-phenyl-1H-pyrazol-5-yl)-3-((3S,4R)-4-(3-fluorophenyl)-1-(2-methoxyethyl)pyrrolidin-3-yl)urea], the IC50 in test [1] was 4.47 nM. On TPM3-TRKA fusion protein, the inhibition at 0.01 µM lay in the range of 50 to 800% and the inhibition at 0.1 µM lay in the range of 50 to 800%. The compound also gave an IC50 in the test on KM12 cells of 3.13 nM.
Compound `COCCN1C[C@@H](NC(=O)Nc2c(C)c(-c3cnc(N4CCN(CCOc5ccc6c(c5)C(=O)N(C5CCC(=O)NC5=O)C6=O)CC4)nc3)nn2-c2ccccc2)[C@H](c2cccc(F)c2)C1` (stereo partly drawn) [CPD-028, 1-(3-(2-(4-(2-((2-(2,6-dioxopiperidin-3-yl)-1,3-dioxoisoindolin-5-yl)oxy)ethyl)piperazin-1-yl)pyrimidin-5-yl)-4-methyl-1-phenyl-1H-pyrazol-5-yl)-3-((3S,4R)-4-(3-fluorophenyl)-1-(2-methoxyethyl)pyrrolidin-3-yl)urea] came in with an IC50 in test [1] of 30.4 nM. On TPM3-TRKA fusion protein, the inhibition at 0.01 µM is greater than 80% and the inhibition at 0.1 µM is 50 to 800%. Moreover, in the test on KM12 cells, the IC50 was 4.1 nM.
As to `COCCN1C[C@@H](NC(=O)Nc2c(C)c(-c3cnc(N4CCN(CCCc5cccc6c5C(=O)N(C5CCC(=O)NC5=O)C6=O)CC4)nc3)nn2-c2ccccc2)[C@H](c2cccc(F)c2)C1` (stereo partly drawn) [CPD-029, 1-(3-(2-(4-(3-(2-(2,6-dioxopiperidin-3-yl)-1,3-dioxoisoindolin-4-yl)propyl)piperazin-1-yl)pyrimidin-5-yl)-4-methyl-1-phenyl-1H-pyrazol-5-yl)-3-((3S,4R)-4-(3-fluorophenyl)-1-(2-methoxyethyl)pyrrolidin-3-yl)urea], in test [1], it took 277 nM to reach half-maximal inhibition (IC50). In addition, at TPM3-TRKA fusion protein, the inhibition at 0.01 µM was less than 50% and the inhibition at 0.1 µM lay within 50 to 800%. Further, it took 13.4 nM to reach half-maximal inhibition in the test on KM12 cells (IC50).
